In patent US12378224B2 (Dong-A Socio Holdings Co., Ltd., priority 2016, dated 2025):

Molecular target: human MER (528-end) (Homo sapiens (Human), UniProt Q12866)
Assay: HTRF Kinase Activity Biochemical Assay (KinEASE-TK)
Details: 10 uM ATP
In short: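 Activity read-out is the HTRF ratio (665 nm over 620 nm emission, ×10,000; excitation 340 nm) after 1 h detection with 0.375 nM Eu3+-cryptate anti-TK antibody plus 0.062 uM SA-XL665. Preceding kinase step: human MER (528-end), biotinylated TK substrate, 1 h, room temperature.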

Sequence of human MER (528-end) (Q12866 528-999 limits assumed): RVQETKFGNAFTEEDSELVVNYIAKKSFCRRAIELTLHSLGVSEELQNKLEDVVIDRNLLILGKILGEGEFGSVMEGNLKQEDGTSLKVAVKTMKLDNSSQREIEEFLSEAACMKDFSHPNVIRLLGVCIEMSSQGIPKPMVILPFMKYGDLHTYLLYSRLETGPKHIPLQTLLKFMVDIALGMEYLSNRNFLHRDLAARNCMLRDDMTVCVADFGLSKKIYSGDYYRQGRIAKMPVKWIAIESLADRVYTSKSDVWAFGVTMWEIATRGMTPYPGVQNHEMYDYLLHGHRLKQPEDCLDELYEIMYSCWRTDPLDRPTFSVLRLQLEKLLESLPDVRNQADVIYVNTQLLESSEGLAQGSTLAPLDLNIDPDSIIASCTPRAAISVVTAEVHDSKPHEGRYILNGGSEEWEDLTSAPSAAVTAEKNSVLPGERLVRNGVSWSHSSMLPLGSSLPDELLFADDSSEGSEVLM

Work on `Cn1cc(-c2cnc(N)c(C(=O)N[C@@H]3CCN(C(=O)c4ccc(-c5ccc(Oc6ccc(N)nc6)cc5)cc4)C3)c2)cn1` [Example 813, (R)-2-amino-N-(1-(4′-((6-aminopyridin-3-yl)oxy)-[1,1′-biphenyl]-4-carbonyl)pyrrolidin-3-yl)-5-(1-methyl-1H-pyrazol-4-yl)nicotinamide] yielded an IC50 of 100 to 1000 nM.
Work on `Cc1nn(-c2ccccc2)c(C)c1-c1ccc(C(=O)N2CC[C@@H](NC(=O)c3cc(-c4cnn(C)c4)cnc3N)C2)cc1` [Example 519, (R)-2-amino-N-(1-(4-(3,5-dimethyl-1-phenyl-1H-pyrazol-4-yl)benzoyl)pyrrolidin-3-yl)-5-(1-methyl-1H-pyrazol-4-yl)nicotinamide] yielded an IC50 of over 1000 nM.
In the case of `Cn1cc(-c2cnc(N)c(C(=O)N[C@@H]3CCN(C(=O)Oc4cccc(C(=O)N5CCCCC5)c4)C3)c2)cn1` [Example 55, 3-(piperidine-1-carbonyl)phenyl (R)-3-(2-amino-5-(1-methyl-1H-pyrazol-4-yl)nicotinamido)pyrrolidine-1-carboxylate], the IC50 is reported as over 1000 nM.
`CN1CCN(Cc2ccc(-c3cccc(NC(=O)N4CC[C@@H](NC(=O)c5cc(-c6cnn(C)c6)cnc5N)C4)c3)cc2)CC1` [Example 268, (R)-2-amino-5-(1-methyl-1H-pyrazol-4-yl)-N-(1-((4′-((4-methylpiperazin-1-yl)methyl)-[1,1′-biphenyl]-3-yl)carbamoyl)pyrrolidin-3-yl)nicotinamide] showed an IC50 of 10 to 100 nM.
`Cn1cc(-c2cnc(N)c(C(=O)N[C@@H]3CCN(C(=O)Oc4ccc5ccccc5c4N)C3)c2)cn1` [Example 69, 1-aminonaphthalen-2-yl (R)-3-(2-amino-5-(1-methyl-1H-pyrazol-4-yl)nicotinamido)pyrrolidine-1-carboxylate] showed an IC50 of 100 to 1000 nM.
`Cn1cc(-c2cnc(N)c(C(=O)N[C@@H]3CCN(C(=O)c4ccc(Br)cc4)C3)c2)cn1` [Example 342, (R)-2-amino-N-(1-(4-bromobenzoyl)pyrrolidin-3-yl)-5-(1-methyl-1H-pyrazol-4-yl)nicotinamide] was tested, and the IC50 was over 1000 nM.
Compound `Cn1cc(-c2cnc(N)c(C(=O)N[C@@H]3CCN(C(=O)Nc4ccc(-c5ccc(CN)cc5)cc4)C3)c2)cn1` [Example 270, (R)-2-amino-N-(1-((4′-(aminomethyl)-[1,1′-biphenyl]-4-yl)carbamoyl)pyrrolidin-3-yl)-5-(1-methyl-1H-pyrazol-4-yl)nicotinamide] has an IC50 of over 1000 nM.
`Cn1cc(-c2cnc(N)c(C(=O)N[C@@H]3CCN(C(=O)O[C@H]4C[C@@H]5CC[C@H]4C5)C3)c2)cn1` [Example 109, (1S,2S,4R)-bicyclo[2.2.1]heptan-2-yl (R)-3-(2-amino-5-(1-methyl-1H-pyrazol-4-yl)nicotinamido)pyrrolidine-1-carboxylate] was tested, and the IC50 was over 1000 nM.
Work on `CN1CCN(c2ccc(C(=O)N3CC[C@@H](NC(=O)c4cc(-c5cnn(C)c5)cnc4N)C3)cc2)CC1` [Example 416, (R)-2-amino-5-(1-methyl-1H-pyrazol-4-yl)-N-(1-(4-(4-methylpiperazin-1-yl)benzoyl)pyrrolidin-3-yl)nicotinamide] yielded an IC50 of over 1000 nM.
`Cc1ccc(CN2CC[C@@H](NC(=O)c3cc(-c4cnn(C)c4)cnc3N)C2)cc1C` [Example 214, (R)-2-amino-N-(1-(3,4-dimethylbenzyl)pyrrolidin-3-yl)-5-(1-methyl-1H-pyrazol-4-yl)nicotinamide] gave an IC50 of over 1000 nM.
`Cn1cc(-c2cnc(N)c(C(=O)N[C@@H]3CCN(C(=S)NCc4ccccc4)C3)c2)cn1` [Example 43, (R)-2-amino-N-(1-(benzylcarbamothioyl)pyrrolidin-3-yl)-5-(1-methyl-1H-pyrazol-4-yl)nicotinamide] was tested, and the IC50 was over 1000 nM.
`Cn1cc(-c2cnc(N)c(C(=O)N[C@@H]3CCN(C(=O)Nc4ccn(C)n4)C3)c2)cn1` [Example 12, (R)-2-amino-N-(1-((1-methyl-1H-pyrazol-3-yl)carbamoyl)pyrrolidin-3-yl)-5-(1-methyl-1H-pyrazol-4-yl)nicotinamide] was tested, and the IC50 was over 1000 nM.
In the case of `Cc1cc(OC(=O)N2CC[C@@H](NC(=O)c3cc(-c4cnn(C)c4)cnc3N)C2)cc(C(C)C)c1` [Example 57, 3-isopropyl-5-methylphenyl (R)-3-(2-amino-5-(1-methyl-1H-pyrazol-4-yl)nicotinamido)pyrrolidine-1-carboxylate], the IC50 is reported as over 1000 nM.
`Cn1cc(-c2cnc(N)c(C(=O)N[C@@H]3CCN(C(=O)c4ccc(-c5ccc(Oc6nn[nH]n6)cc5)cc4)C3)c2)cn1` [Example 814, (R)—N-(1-(4′-((2H-tetrazol-5-yl)oxy)-[1,1′-biphenyl]-4-carbonyl)pyrrolidin-3-yl)-2-amino-5-(1-methyl-1H-pyrazol-4-yl)nicotinamide] was tested, and the IC50 was 100 to 1000 nM.
With `Cn1cc(-c2cnc(N)c(C(=O)N[C@@H]3CCN(C(=O)c4cccc(-c5cc6ccccc6s5)c4)C3)c2)cn1` [Example 474, (R)-2-amino-N-(1-(3-(benzo[b]thiophen-2-yl)benzoyl)pyrrolidin-3-yl)-5-(1-methyl-1H-pyrazol-4-yl)nicotinamide] the IC50 was over 1000 nM.
`COC(=O)/C=C/c1ccc(C(=O)N2CC[C@@H](NC(=O)c3cc(-c4cnn(C)c4)cnc3N)C2)cc1` [Example 828, methyl (R,E)-3-(4-(3-(2-amino-5-(1-methyl-1H-pyrazol-4-yl)nicotinamido)pyrrolidine-1-carbonyl)phenyl)acrylate] showed an IC50 of over 1000 nM.
`Cn1cc(-c2cnc(N)c(C(=O)N[C@@H]3CCN(C(=O)c4cccc(O)c4)C3)c2)cn1` [Example 515, (R)-2-amino-N-(1-(3-hydroxybenzoyl)pyrrolidin-3-yl)-5-(1-methyl-1H-pyrazol-4-yl)nicotinamide] gave an IC50 of over 1000 nM.
In the case of `Cc1nn(C)cc1-c1ccc(C(=O)N2CC[C@@H](NC(=O)c3cc(-c4cnn(C)c4)cnc3N)C2)cc1` [Example 488, (R)-2-amino-N-(1-(4-(1,3-dimethyl-1H-pyrazol-4-yl)benzoyl)pyrrolidin-3-yl)-5-(1-methyl-1H-pyrazol-4-yl)nicotinamide], the IC50 is reported as 100 to 1000 nM.
With `CN(C(=O)N1CC[C@@H](NC(=O)c2cc(-c3cnn(C)c3)cnc2N)C1)c1ccccc1` [Example 625, (R)-2-amino-N-(1-(methyl(phenyl)carbamoyl)pyrrolidin-3-yl)-5-(1-methyl-1H-pyrazol-4-yl)nicotinamide] the IC50 was over 1000 nM.
`Cn1cc(-c2cnc(N)c(C(=O)N[C@@H]3CCN(C(=O)c4ccc(-c5ccccc5Oc5ccccc5)cc4)C3)c2)cn1` [Example 351, (R)-2-amino-5-(1-methyl-1H-pyrazol-4-yl)-N-(1-(2^1-phenoxy-[1,1′-biphenyl]-4-carbonyl)pyrrolidin-3-yl)nicotinamide] showed an IC50 of over 1000 nM.
`Cc1cc(C(=O)N2CC[C@@H](NC(=O)c3cc(-c4cnn(C)c4)cnc3N)C2)ccc1-c1ccccc1` [Example 399, (R)-2-amino-5-(1-methyl-1H-pyrazol-4-yl)-N-(1-(2-methyl-[1,1′-biphenyl]-4-carbonyl)pyrrolidin-3-yl)nicotinamide] gave an IC50 of 100 to 1000 nM.
`Cc1ccc(C(=O)N2CC[C@@H](NC(=O)c3cc(-c4cnn(C)c4)cnc3N)C2)s1` [Example 408, (R)-2-amino-5-(1-methyl-1H-pyrazol-4-yl)-N-(1-(5-methylthiophene-2-carbonyl)pyrrolidin-3-yl)nicotinamide] was tested, and the IC50 was over 1000 nM.
With `C/C(=C\c1ccccc1)C(=O)N1CC[C@@H](NC(=O)c2cc(-c3cnn(C)c3)cnc2N)C1` [Example 426, (R,E)-2-amino-5-(1-methyl-1H-pyrazol-4-yl)-N-(1-(2-methyl-3-phenylacryloyl)pyrrolidin-3-yl)nicotinamide] the IC50 was over 1000 nM.
`Cn1cc(-c2cnc(N)c(C(=O)N[C@@H]3CCN(C(=O)c4ccc(-c5cc(F)cc(Cl)c5)cc4)C3)c2)cn1` [Example 663, (R)-2-amino-N-(1-(3′-chloro-5′-fluoro-[1,1′-biphenyl]-4-carbonyl)pyrrolidin-3-yl)-5-(1-methyl-1H-pyrazol-4-yl)nicotinamide] was tested, and the IC50 was 10 to 100 nM.
Work on `CCc1ccccc1-c1ccc(C(=O)N2CC[C@@H](NC(=O)c3cc(-c4cnn(C)c4)cnc3N)C2)cc1` [Example 353, (R)-2-amino-N-(1-(2′-ethyl-[1,1′-biphenyl]-4-carbonyl)pyrrolidin-3-yl)-5-(1-methyl-1H-pyrazol-4-yl)nicotinamide] yielded an IC50 of 100 to 1000 nM.
For `Cn1cc(-c2cnc(N)c(C(=O)N[C@@H]3CCN(C(=O)c4ccc(-c5ccccc5Cl)nc4)C3)c2)cn1` [Example 397, (R)-2-amino-N-(1-(6-(2-chlorophenyl)nicotinoyl)pyrrolidin-3-yl)-5-(1-methyl-1H-pyrazol-4-yl)nicotinamide], the IC50 was 100 to 1000 nM.
`Cn1cc(-c2cnc(N)c(C(=O)N[C@@H]3CCN(C(=O)Nc4ccc(F)c(F)c4)C3)c2)cn1` [Example 3, (R)-2-amino-N-(1-((3,4-difluorophenyl)carbamoyl)pyrrolidin-3-yl)-5-(1-methyl-1H-pyrazol-4-yl)nicotinamide] showed an IC50 of over 1000 nM.
`Cn1cc(-c2cnc(N)c(C(=O)N[C@@H]3CCN(C(=O)Oc4ccc(S(C)(=O)=O)cc4)C3)c2)cn1` [Example 77, 4-(methylsulfonyl)phenyl (R)-3-(2-amino-5-(1-methyl-1H-pyrazol-4-yl)nicotinamido)pyrrolidine-1-carboxylate] gave an IC50 of over 1000 nM.
For `Cn1cc(-c2cnc(N)c(C(=O)N[C@@H]3CCN(C(=O)c4cccc5[nH]ccc45)C3)c2)cn1` [Example 504, (R)—N-(1-(1H-indole-4-carbonyl)pyrrolidin-3-yl)-2-amino-5-(1-methyl-1H-pyrazol-4-yl)nicotinamide], the IC50 was over 1000 nM.
`CN(C)Cc1ccccc1OC(=O)N1CC[C@@H](NC(=O)c2cc(-c3cnn(C)c3)cnc2N)C1` [Example 78, 2-((dimethylamino)methyl)phenyl (R)-3-(2-amino-5-(1-methyl-1H-pyrazol-4-yl)nicotinamido)pyrrolidine-1-carboxylate] gave an IC50 of over 1000 nM.
`Nc1ncc(-c2cnn(C3CCNCC3)c2)cc1C(=O)N[C@@H]1CCN(Cc2cc(F)c(F)cc2F)C1` [Example 157, (R)-2-amino-5-(1-(piperidin-4-yl)-1H-pyrazol-4-yl)-N-(1-(2,4,5-trifluorobenzyl)pyrrolidin-3-yl)nicotinamide] was tested, and the IC50 was over 1000 nM.
